# Measurements as given in ChEMBL document CHEMBL2203104, “Recent advances in antitubercular natural products” (Eur J Med Chem, 2012).
# Numbered stars: 1 amine (or outer) side, 2 acyl side, 3 side chain; on linkers, the order of the positions; unused ones are H or OH. Square brackets hold non-standard residues; d marks the D form. Peptide text beside a SMILES is read from it. * marks the point of attachment. X1 = CCC(=O)C[C@@H](O)C[C@@H](C)C[C@H](N[*:1])C(=O)[*:2]; Alaψ(CH2NMeCH2CH2OH) = C[C@@H](CN(C)CCO)N*; Decanoyl(2R-Me) = CCCCCCCC[C@@H](C)C(=O)*; Aib = CC(C)(N)C(=O)O
# Experiments:
# Format in all cases: functional
# [1] = tested on: Mycobacterium tuberculosis; test: Antimycobacterial activity against Mycobacterium tuberculosis
# [2] = tested on: Mycobacterium tuberculosis; test: Antimycobacterial activity against Mycobacterium tuberculosis H37Rv ATCC 27294
# [3] = tested on: Mycobacterium tuberculosis; test: Antimycobacterial activity against Mycobacterium tuberculosis isolate CIBIN/UMF 15:19
# [4] = tested on: Mycobacterium tuberculosis; test: Antimycobacterial activity against Mycobacterium tuberculosis 90-221387
# [5] = tested on: Mycobacterium tuberculosis; test: Antimycobacterial activity against Mycobacterium tuberculosis H37Rv
# [6] = tested on: Mycobacterium tuberculosis; test: Antimycobacterial activity against Mycobacterium tuberculosis H37Ra
smiles,measurement,setting,value
COc1cccc2c1C(=O)c1nccc3cc4c(c-2c13)OCO4 [OXOSTEPHANINE],MIC,[1],50 µg/mL
CC(C)[C@H]1CC[C@@H]2[C@]1(C)CC(=O)[C@@]1(C)CC[C@@](C)(O)[C@@H]3C[C@@]231 [AZORELLANONE],MIC,[2],12.5 µg/mL
same,MIC,[3],12.5 µg/mL
CC(C)=CCC/C(C)=C/CC/C(C)=C/CC/C=C(\C)CC/C=C(\C)CCC=C(C)C [SQUALENE],MIC,[4],28 µg/mL
CC(=O)OC[C@H]1O[C@@H](Oc2cccc3c2C(=O)c2c(O)cc(C)cc2C3=O)[C@H](O)[C@@H](O)[C@@H]1O,MIC,[1],4.1 µM
C#C[C@@]12O[C@]1(CO)[C@]1(C)CC[C@H]3C(C)(C)CCC[C@]3(C)[C@H]1CC2=O [ESCOBARINE B],MIC,[2],50 µg/mL
same,MIC,[3],50 µg/mL
CSCCC(NC(=O)NC(Cc1c[nH]c2ccccc12)C(=O)O)C(=O)NC(C(=O)N/C=C1\C[C@@H](O)[C@H](n2ccc(=O)[nH]c2=O)O1)C(C)N(C)C(=O)C1Cc2cc(O)ccc2C(C)(C)N1 (stereo partly drawn) [SANSANMYCIN F],MIC,[2],16 µg/mL
COc1cc([C@H]2O[C@@]3(c4cc(OC)c5c(c4)OCO5)O[C@@]3(C)[C@@H]2C)cc(OC)c1OC,MIC,[4],30 µg/mL
CC(C)[C@H]1CC[C@H]2[C@@H]3C=C[C@](C)(O)CC[C@]3(C)CC[C@]12CO [MULINOL],MIC,[2],12.5 µg/mL
same,MIC,[3],12.5 µg/mL
CCCCCCC[C@@H]1C[C@@H]2CCC3=C(C(=O)OC(C)CCCCCCC[C@@H]4C[C@@H]5CC[C@@H]6C[C@H](C)NC(=N4)N65)C(C)N=C(N1)N32 (stereo partly drawn) [BATZELLADINE N],MIC,[2],3.18 µg/mL
CC(=O)O[C@H]1C[C@]2(C)[C@@H](C(C)C)CC[C@H]2[C@]23C[C@H]2[C@](C)(O)CC[C@]13C [AZORELLANOL],MIC,[2],12.5 µg/mL
same,MIC,[3],12.5 µg/mL
CC1COc2c(N3CCN(C)CC3)c(F)cc3c(=O)c(C(=O)O)cn1c23 (stereo not drawn) [OFLOXACIN],MIC,[2],0.125 µg/mL
same,MIC,[3],0.125 µg/mL
CCCCCCC[C@@H]1C[C@@H]2CCC3=C(C(=O)OCCCCCCC[C@@H]4C[C@@H]5CC[C@@H]6C[C@H](C)NC(=N4)N65)C(C)N=C(N1)N32 (stereo partly drawn),MIC,[2],28.5 µg/mL
C=C[C@@]1(C)C=C2CC[C@@H]3[C@](C)(CCC[C@@]3(C)C(=O)O)[C@H]2CC1 [PIMARIC ACID],MIC,[1],50 µg/mL
C[C@@H]1C[C@H](C)C(=O)/C=C/C2[C@@H](O)C3OC4=C(C(=O)O[C@@]42C[C@H]3C)C1=O (stereo in doubt; 208),MIC,[5],3.6 µM
same,MIC,[1],8.3 µg/mL
CC(=O)OC[C@@]12CC[C@]3(C)[C@@H](C(C)C)CC[C@H]3[C@@]13C[C@H]3[C@](C)(O)CC2,MIC,[2],12.5 µg/mL
same,MIC,[3],12.5 µg/mL
CCCCOC(=O)[C@]12CC[C@@]3(C)C[C@H]4O[C@@]4(C)[C@H]4O[C@H]4[C@H]3[C@@H]1CC[C@@H]2C(C)C,MIC,[2],6.25 µg/mL
same,MIC,[3],6.25 µg/mL
CCCOC(=O)[C@]12CC[C@@]3(C)CC[C@@](C)(O)C=C[C@H]3[C@@H]1CC[C@@H]2C(C)C,MIC,[2],6.25 µg/mL
same,MIC,[3],6.25 µg/mL
CC(C)[C@]12C=C3CC[C@H]4[C@](C)(C(=O)O)CCC[C@]4(C)[C@]3(CC1)OO2,MIC,[1],50 µg/mL
CCCCCCCC[C@@H](C)C(=O)N1CCC[C@H]1C(=O)N[C@@H](C[C@H](C)C[C@H](O)CC(=O)CC)C(=O)NC(C)(C)C(=O)NC(C)(C)C(=O)N[C@H](C(=O)N[C@H](C(=O)NC(C)(C)C(=O)NC(C)(C)C(=O)N[C@@H](C)CN(C)CCO)C(C)C)[C@@H](C)CC [TRICHODERIN A] ({Decanoyl(2R-Me)}-P[X1][Aib][Aib]IV[Aib][Aib]-{Alaψ(CH2NMeCH2CH2OH)}),MIC,[6],25 µg/mL
COc1ccc2c(=O)c3c(oc2c1)-c1cc2c(cc1CO3)OCO2,MIC,[6],6.25 µg/mL
C#C[C@@]12O[C@]1(C=O)[C@]1(C)CC[C@H]3C(C)(C)CCC[C@]3(C)[C@H]1CC2=O [ESCOBARINE A],MIC,[2],25 µg/mL
same,MIC,[3],12.5 µg/mL
O=C1C[C@@H](c2ccccc2)Oc2cc(O)cc(O)c21 [PINOCEMBRIN],MIC,[6],12.5 µg/mL
CCCCCCC[C@H]1C[C@H]2CCC3=C(C(=O)OCCCCNC(=N)N)C(CCCCC)N=C(N1)N32 (stereo partly drawn),MIC,[2],34.7 µg/mL
CCCCCCCCC[C@@H]1C[C@@H]2CC[C@H]3[C@@H](C(=O)OC(C)CCCCCCC[C@@H]4C[C@@H]5CC[C@@H]6C[C@H](C)NC(=N4)N65)[C@@H](C)N=C(N1)N23 (stereo partly drawn) [BATZELLADINE L],MIC,[2],1.68 µg/mL
COc1cc(O)c2c(c1)[C@H](O)[C@@H](OC)CC2=O,MIC,[6],25 µg/mL
COc1cc(O)c2c(O)c(C(C)=O)c(C)cc2c1 [TORACHRYSONE],MIC,[1],6.1 µM
C=C[C@H]1C=C[C@H]2[C@@H]3C[C@H](C)CC[C@H]3[C@@H]3Oc4ccc(cc4)C[C@]4(O)NC(=O)[C@H](C(=O)[C@@H]1[C@H]23)C4N1C(=O)[C@H]2C(=O)[C@H]3[C@@H](C=C)C=C[C@H]4[C@@H]5C[C@H](C)CC[C@H]5[C@H](Oc5ccc(cc5)C[C@@H]2C1=O)[C@@H]43 (stereo partly drawn) [HIRSUTELLONE F],MIC,[6],3.12 µg/mL
CCCC/C=C/C#CC#CCCCCCCCC(=O)OCC(O)CO (stereo not drawn),MIC,[6],25 µg/mL
CCCCCCC[C@H]1C[C@H]2CCC3=C(C(=O)OCCCCNC(=N)N)C(CCCCC)=NC(=N1)N32,MIC,[2],37.7 µg/mL
O=C(/C=C/CC/C=C/c1ccc2c(c1)OCO2)N1CCCC1 [SARMENTOSINE],MIC,[6],50 µg/mL
C=C1C(=O)O[C@@H]2/C=C(\C(=O)O)CC/C=C(\C)CC[C@@H]12,MIC,[6],50 µg/mL
CC(C)CC(NC(=O)NC(Cc1c[nH]c2ccccc12)C(=O)O)C(=O)NC(C(=O)N/C=C1\C[C@@H](O)[C@H](n2ccc(=O)[nH]c2=O)O1)C(C)N(C)C(=O)C1Cc2cc(O)ccc2C(C)(C)N1 (stereo partly drawn) [SANSANMYCIN G],MIC,[2],16 µg/mL
COc1c(O)cc2c(c1CC=C(C)C)C(=O)c1c(cc(OS(=O)(=O)O)c(CC=C(C)C)c1O)C2,MIC,[1],6.75 µM
